Reference: patent publication US9199945B2, “Cycloalkyl-substituted pyrimidinedione compounds” (MyoKardia, Inc., priority 2013, dated 2015)

test system: adult rat ventricular myocytes; assay: Cardiomyocyte contractility assay (fractional shortening, IonOptix edge detection); format: cell-based; conditions: Ventricular myocyte, 0.3 uM compound, 1 Hz pacing
Procedure: Contractility of adult rat ventricular myocytes is determined by edge detection with an IonOptix contractility system. Aliquots of myocytes in Tyrode buffer (137 mM NaCl, 3.7 mM KCl, 0.5 mM MgCl2, 1.5 mM CaCl2, 4 mM HEPES, 11 mM glucose) are placed in a perfusion chamber (Series 20 RC-27NE; Warner Instruments), allowed to adhere to the coverslip, and then perfused with 37° C. Tyrode buffer. Myocytes are filed stimulated at 1 Hz and 10V. Only myocytes with clear striations, quiescent prior to pacing, with a cell length of 120-180 microns, a basal fractional shortening equal to 3-8% of the cell length, and a contraction velocity greater than 100 microns per second are used for contractility experiments. To determine the response to compounds, myocytes are first perfused for 60 seconds with Tyrodes buffer followed by 5 minutes of compound and a 140 second washout with Tyrodes buffer. Data is continuously recorded using IonOptix software. Contractility data is analyzed using lonwizard software (IonOptix). For each cell, 10-20 contractility transients were averaged and compared under basal (no compound) and compound-treated conditions. Compound activity is measured by effects on fractional shortening (FS), where fractional shortening is the ratio of the peak length of the cell at contraction divided by the basal cell length normalized to 100% for an untreated cell.

Row | Compound | inhibition at 0.3 µM [%]
1 | CC(C)n1c(=O)cc(N[C@@H](C)CC2CCC(F)(F)CC2)[nH]c1=O [Compound 3, (S)-6-((1-(4,4-Difluorocyclohexyl)propan-2-yl)amino)-3-isopropylpyrimidine-2,4(1H,3H)-dione] | > 66

same assay, conditions: Ventricular myocyte, 1.0 uM compound, 1 Hz pacing

Row | Compound | inhibition at 1 µM [%]
2 | CC(C)n1c(=O)[nH]c(N[C@@H](C)C2CCC(F)(F)CC2)c(F)c1=O [Compound 5, (S)-6-((1-(4,4-difluorocyclohexyl)ethyl)amino)-5-fluoro-3-isopropylpyrimidine-2,4(1H,3H)-dione] | 33 to 66
3 | CC(C)n1c(=O)cc(N[C@@H](C)C2CCC(F)(F)CC2)[nH]c1=O [Compound 9, (S)-6-((1-(4,4-difluorocyclohexyl)ethyl)amino)-3-isopropylpyrimidine-2,4(1H,3H)-dione] | > 66

target: T1, bovine cardiac myosin (Bos taurus, UniProt Q9BE39); assay: Myosin inhibition assay (PK/LDH-coupled ATPase, bovine cardiac myofibrils); format: biochemical; conditions: calcium concentration giving 50% activation (pCa50), read-out: Biochemical Activity (pCa50)
T1 construct: The source of cardiac myosin was from bovine heart in the form of skinned myofibrils; from tissue; host or cells: bovine heart (skinned myofibrils)
Procedure: Small molecule agents were assessed for their ability to inhibit the enzymatic activity of bovine cardiac myosin using a biochemical assay that couples the release of ADP (adenosine diphosphate) from cardiac myosin to an enzymatic coupling system consisting of pyruvate kinase and lactate dehydrogenase (PK/LDH) and monitoring the absorbance decrease of NADH (at 340 nm) as a function of time. PK converts ADP to ATP (adenosine triphosphate) by converting PEP (phosphoenolpyruvate) to pyruvate. Pyruvate is then converted to lactate by LDH by converting NADH (nicotinamide adenine dinucleotide) to NAD (oxidized nicotinamide adenine dinucleotide). The source of cardiac myosin was from bovine heart in the form of skinned myofibrils. Prior to testing small molecule agents, the bovine myofibrils were assessed for their calcium responsiveness and the calcium concentration that achieves either a 50% (pCa50) or 75% (pCa75) activation of the myofibril system was chosen as the final condition for assessing the inhibitory activity of the small molecule agents. All enzymatic activity was measured in a buffered solution containing 12 mM PIPES (piperazine-N,N′-bis(2-ethanesulfonic acid), 2 mM magnesium chloride at pH 6.8 (PM12 buffer). Final assay conditions were 1 mg/mL of bovine cardiac myofibrils, 0.4 mM PK/LDH, 50 uM ATP, 0.1 mg/mL BSA (bovine serum albumin), 10 ppm antifoam, 1 mM DTT, 0.5 mM NADH, 1.5 mM PEP at the desired free calcium concentration required to achieve either 50% or 75% activation of the myofibrils.
A dilution series of compound was created in DMSO such that the final desired concentration of compound would be achieved in a volume of 100 μL with a fixed DMSO concentration of 2% (v/v). Typically 2 μL of the dilution series were added to 96 well plate to achieve an 8 or 12 point dose response. Following the addition of 50 μL of a solution containing bovine cardiac myofibrils, PK/LDH and a solution of calcium (that achieved the desired activation), the enzymatic reaction was started with the addition of 50 μL of a solution containing ATP, PEP and NADH. The reaction progress was followed in a Molecular Devices M5e plate reader at ambient temperature using clear half area plates. The plate reader was configured to read absorbance at 340 nm in kinetics mode for 15 minutes. Data were recorded as the slope of the absorbance response to time. The slopes of the absorbance response as a function of time were normalized to slopes on the plate containing DMSO. This normalized rate was then plotted as a function of small molecule concentration and the data was fitted to a four-parameter fit using GraphPad Prism. The midpoint of this plot is the IC50 and is the concentration at which fifty percent of the total response is inhibited.

T1 sequence (Q9BE39 whole entry): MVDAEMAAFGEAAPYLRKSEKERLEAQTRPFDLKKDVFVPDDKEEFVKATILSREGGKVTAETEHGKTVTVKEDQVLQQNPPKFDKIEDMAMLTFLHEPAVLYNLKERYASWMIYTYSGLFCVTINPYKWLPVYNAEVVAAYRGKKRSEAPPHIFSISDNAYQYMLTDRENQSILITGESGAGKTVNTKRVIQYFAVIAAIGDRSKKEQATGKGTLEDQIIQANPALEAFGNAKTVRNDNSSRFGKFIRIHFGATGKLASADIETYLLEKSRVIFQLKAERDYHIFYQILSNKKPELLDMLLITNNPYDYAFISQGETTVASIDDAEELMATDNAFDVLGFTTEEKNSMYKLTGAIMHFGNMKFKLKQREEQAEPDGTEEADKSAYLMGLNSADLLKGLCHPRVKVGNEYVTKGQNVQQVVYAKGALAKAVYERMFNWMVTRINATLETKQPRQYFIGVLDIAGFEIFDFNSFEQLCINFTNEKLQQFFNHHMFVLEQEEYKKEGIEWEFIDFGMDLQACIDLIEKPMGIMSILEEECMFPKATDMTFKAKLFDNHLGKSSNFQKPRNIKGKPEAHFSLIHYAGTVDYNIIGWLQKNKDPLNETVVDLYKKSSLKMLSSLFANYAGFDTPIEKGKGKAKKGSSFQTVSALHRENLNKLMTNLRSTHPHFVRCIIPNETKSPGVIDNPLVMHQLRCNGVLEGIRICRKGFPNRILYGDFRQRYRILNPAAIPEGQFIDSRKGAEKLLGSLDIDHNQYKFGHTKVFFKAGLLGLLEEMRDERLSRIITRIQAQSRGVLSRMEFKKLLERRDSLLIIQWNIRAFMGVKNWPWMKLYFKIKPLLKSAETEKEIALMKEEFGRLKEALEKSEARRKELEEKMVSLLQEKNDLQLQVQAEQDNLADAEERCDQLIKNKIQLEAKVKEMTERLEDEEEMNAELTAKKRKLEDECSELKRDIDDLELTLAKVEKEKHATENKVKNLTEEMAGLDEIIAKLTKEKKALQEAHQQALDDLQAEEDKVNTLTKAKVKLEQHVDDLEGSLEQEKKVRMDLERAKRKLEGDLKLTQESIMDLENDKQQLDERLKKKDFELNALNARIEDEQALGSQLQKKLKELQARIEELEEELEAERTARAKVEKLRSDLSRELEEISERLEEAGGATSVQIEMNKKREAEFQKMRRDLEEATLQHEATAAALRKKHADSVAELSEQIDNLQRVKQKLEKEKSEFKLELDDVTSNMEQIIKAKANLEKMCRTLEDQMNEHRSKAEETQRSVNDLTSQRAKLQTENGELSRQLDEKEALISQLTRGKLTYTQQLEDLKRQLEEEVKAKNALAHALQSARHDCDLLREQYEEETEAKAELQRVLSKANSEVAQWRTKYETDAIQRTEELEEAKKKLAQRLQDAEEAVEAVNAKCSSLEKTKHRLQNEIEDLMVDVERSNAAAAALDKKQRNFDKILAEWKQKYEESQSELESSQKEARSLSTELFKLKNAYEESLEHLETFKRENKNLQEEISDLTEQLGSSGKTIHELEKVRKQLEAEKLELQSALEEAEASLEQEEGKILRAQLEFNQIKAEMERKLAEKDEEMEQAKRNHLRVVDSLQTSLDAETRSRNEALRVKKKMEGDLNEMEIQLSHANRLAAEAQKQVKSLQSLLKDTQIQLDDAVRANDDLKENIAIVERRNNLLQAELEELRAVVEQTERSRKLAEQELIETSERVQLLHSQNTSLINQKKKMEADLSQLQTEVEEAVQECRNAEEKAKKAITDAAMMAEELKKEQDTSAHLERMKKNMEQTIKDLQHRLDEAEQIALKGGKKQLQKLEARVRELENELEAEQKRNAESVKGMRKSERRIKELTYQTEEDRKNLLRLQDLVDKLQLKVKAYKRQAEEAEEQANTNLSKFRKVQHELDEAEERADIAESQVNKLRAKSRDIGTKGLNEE
T1 sequence (P85100 whole entry partner): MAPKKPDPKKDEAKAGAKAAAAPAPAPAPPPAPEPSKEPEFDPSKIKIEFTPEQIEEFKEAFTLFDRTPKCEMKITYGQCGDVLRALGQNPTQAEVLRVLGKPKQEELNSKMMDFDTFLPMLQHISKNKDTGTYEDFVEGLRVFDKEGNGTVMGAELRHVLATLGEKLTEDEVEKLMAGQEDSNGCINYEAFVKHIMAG
T1 sequence (Q3SZE5 whole entry partner): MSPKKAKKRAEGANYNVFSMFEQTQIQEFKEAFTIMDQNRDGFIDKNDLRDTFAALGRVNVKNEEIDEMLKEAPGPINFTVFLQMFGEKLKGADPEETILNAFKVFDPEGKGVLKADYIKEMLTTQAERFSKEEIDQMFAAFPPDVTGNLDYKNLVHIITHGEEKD

Row | IC50 [nM] | Compound
4 | < 1000 | C[C@@H](CC1CCC(F)(F)CC1)Nc1cc(=O)n(-c2cc(F)cc(F)c2)c(=O)[nH]1 [Compound 11, (S)-6-((1-(4,4-difluorocyclohexyl)propan-2-yl)amino)-3-(3,5-difluorophenyl)pyrimidine-2,4(1H,3H)-dione]
5 | 1000 to 15000 | C[C@@H](CC1CC(F)(F)C1)Nc1cc(=O)n(-c2cc(F)cc(F)c2)c(=O)[nH]1 [Compound 12, (S)-6-((1-(3,3-difluorocyclobutyl)propan-2-yl)amino)-3-(3,5-difluorophenyl)pyrimidine-2,4(1H,3H)-dione]

same assay, conditions: calcium concentration giving 75% activation (pCa75), read-out: Biochemical Activity (pCa75)

Row | Compound | IC50 [nM]
6 | CC(C)n1c(=O)cc(NCC2CCCCC2)[nH]c1=O [Compound 1, 6-((cyclohexylmethyl)amino)-3-isopropylpyrimidine-2,4(1H,3H)-dione] | 1000 to 15000
7 | CC(C)n1c(=O)cc(NCC2CCCC2)[nH]c1=O [Compound 2, 6-((Cyclopentylmethyl)amino)-3-isopropylpyrimidine-2,4(1H,3H)-dione] | > 15000
8 | CC(C)n1c(=O)cc(N[C@@H](C)CC2CCC(F)(F)CC2)[nH]c1=O [Compound 3, (S)-6-((1-(4,4-Difluorocyclohexyl)propan-2-yl)amino)-3-isopropylpyrimidine-2,4(1H,3H)-dione] | < 1000
9 | C[C@H](Nc1cc(=O)n(C2CCOCC2)c(=O)[nH]1)C1CCC(F)(F)CC1 [Compound 4, (S)-6-((1-(4,4-difluorocyclohexyl)ethyl)amino)-3-(tetrahydro-2H-pyran-4-yl)pyrimidine-2,4(1H,3H)-dione] | 1000 to 15000
10 | CC(C)n1c(=O)[nH]c(N[C@@H](C)C2CCC(F)(F)CC2)c(F)c1=O [Compound 5, (S)-6-((1-(4,4-difluorocyclohexyl)ethyl)amino)-5-fluoro-3-isopropylpyrimidine-2,4(1H,3H)-dione] | < 1000
11 | CC(C)n1c(=O)cc(N[C@@H](C)C2CCCCC2)[nH]c1=O [Compound 6, (S)-6-((1-cyclohexylethyl)amino)-3-isopropylpyrimidine-2,4(1H,3H)-dione] | < 1000
12 | CC(C)n1c(=O)cc(NCC2CCC2)[nH]c1=O [Compound 7, 6-((cyclobutylmethyl)amino)-3-isopropylpyrimidine-2,4(1H,3H)-dione] | > 15000
13 | CC(C)n1c(=O)cc(NCC2CCCCCC2)[nH]c1=O [Compound 8, 6-((cycloheptylmethyl)amino)-3-isopropylpyrimidine-2,4(1H,3H)-dione] | < 1000
14 | CC(C)n1c(=O)cc(N[C@@H](C)C2CCC(F)(F)CC2)[nH]c1=O [Compound 9, (S)-6-((1-(4,4-difluorocyclohexyl)ethyl)amino)-3-isopropylpyrimidine-2,4(1H,3H)-dione] | < 1000
15 | CC(C)n1c(=O)cc(N[C@@H](C)CC2CC(F)(F)C2)[nH]c1=O [Compound 10, (S)-6-((1-(3,3-difluorocyclobutyl)propan-2-yl)amino)-3-isopropylpyrimidine-2,4(1H,3H)-dione] | 1000 to 15000

More lines, now with the values ahead:

Row | IC50 [nM] | Compound
16 | > 15000 | CC(C)n1c(=O)cc(NCCC2CCOCC2)[nH]c1=O [Compound 13, 3-isopropyl-6-((2-(tetrahydro-2H-pyran-4-yl)ethyl)amino) pyrimidine-2,4(1H,3H)-dione]
17 | 1000 to 15000 | CC(C)n1c(=O)cc(N[C@@H](C)CC2CCOCC2)[nH]c1=O [Compound 14, (S)-3-isopropyl-6-((1-(tetrahydro-2H-pyran-4-yl)propan-2-yl)amino)pyrimidine-2,4(1H,3H)-dione]
18 | < 1000 | C[C@H](Nc1cc(=O)n(C2CCN(S(C)(=O)=O)CC2)c(=O)[nH]1)C1CCCCC1 [Compound 15, (S)-6-((1-cyclohexylethyl)amino)-3-(1-(methylsulfonyl)piperidin-4-yl)pyrimidine-2,4(1H,3H)-dione]
